From ChEMBL document CHEMBL3885881, “DrugMatrix”
Starred links: 1 amine or outer side, 2 acyl side, 3 side chain; linkers in the order of their positions; H or OH if unused. Positions of bridges follow the written chain, without caps; N, C: chain ends. Non-standard residues stand in square brackets, D forms with d. Residues, ends and D or L forms follow the SMILES beside them. Chains are numbered I, II in the order given. Actinocin(9to1) = Cc1c2oc3c(C)ccc(C(=O)[*:1])c3nc-2c(C(=O)[*:2])c(N)c1=O; NMeV = CN[C@H](C(=O)O)C(C)C; Sar = CNCC(=O)O

Species: Rattus norvegicus
Test: DrugMatrix - Regimen: Daily Repeat
Assay type: toxicity, organism-based, Sprague-Dawley
Parameters: regimen Daily Repeat, gender Male, age 6-8 weeks
Conditions: in vivo, iv, vehicle 100 % SALINE; for ABSOLUTE BASOPHIL / ABSOLUTE EOSINOPHIL / ABSOLUTE LYMPHOCYTE / ABSOLUTE MONOCYTE / ABSOLUTE SEGMENTED NEUTROPHIL / BASOPHIL / EOSINOPHIL / ERYTHROCYTE COUNT / HEMATOCRIT / HEMOGLOBIN / LEUKOCYTE COUNT / LYMPHOCYTE / MEAN CORPUSCULAR HEMOGLOBIN / MEAN CORPUSCULAR HEMOGLOBIN CONCENTRATION / MEAN CORPUSCULAR VOLUME / MONOCYTE / NEUTROPHIL / NUCLEATED RED BLOOD CELLS / PLATELET COUNT: tissue Blood; for ALANINE AMINOTRANSFERASE / ALBUMIN / ALKALINE PHOSPHATASE / ASPARTATE AMINOTRANSFERASE / BLOOD UREA NITROGEN / CARBON DIOXIDE / CHLORIDE / CHOLESTEROL / CREATINE PHOSPHOKINASE / CREATININE / GLUCOSE / LACTATE DEHYDROGENASE / LIPASE / PHOSPHORUS / POTASSIUM / SODIUM / TOTAL BILIRUBIN / TOTAL PROTEIN / URIC ACID: tissue Plasma
[1] = 0 mg/kg, 72 h, dose level Control, time 3 day
[2] = 0 mg/kg, 120 h, dose level Control, time 5 day
[3] = 0.006 mg/kg, 72 h, dose level Low, time 3 day

Cc1c2oc3c(C)ccc(C(=O)N[C@@H]4C(=O)N[C@H](C(C)C)C(=O)N5CCC[C@H]5C(=O)N(C)CC(=O)N(C)[C@@H](C(C)C)C(=O)O[C@@H]4C)c3nc-2c(C(=O)N[C@@H]2C(=O)N[C@H](C(C)C)C(=O)N3CCC[C@H]3C(=O)N(C)CC(=O)N(C)[C@@H](C(C)C)C(=O)O[C@@H]2C)c(N)c1=O [DACTINOMYCIN] (I: T[dV]P[Sar][NMeV] / II: T[dV]P[Sar][NMeV]; ester I:1-I:C, II:1-II:C; linker I:N-II:N via Actinocin(9to1))
ABSOLUTE BASOPHIL [1]: 0 CELLS/uL | ABSOLUTE EOSINOPHIL [1]: 33.67 CELLS/uL | ABSOLUTE LYMPHOCYTE [1]: 12123.5 CELLS/uL | ABSOLUTE MONOCYTE [1]: 243.5 CELLS/uL | ABSOLUTE SEGMENTED NEUTROPHIL [1]: 1282.67 CELLS/uL | BASOPHIL [1]: 0% | EOSINOPHIL [1]: 0.33% | ERYTHROCYTE COUNT [1]: 5.18 x10E6/uL | HEMATOCRIT [1]: 32.63% | HEMOGLOBIN [1]: 12.87 G/DL | LEUKOCYTE COUNT [1]: 13.68 x10E3/uL | LYMPHOCYTE [1]: 88.67% | MEAN CORPUSCULAR HEMOGLOBIN [1]: 24.98 pg | MEAN CORPUSCULAR HEMOGLOBIN CONCENTRATION [1]: 39.48 G/DL | MEAN CORPUSCULAR VOLUME [1]: 63.23 fL | MONOCYTE [1]: 1.83% | NEUTROPHIL [1]: 9.17% | NUCLEATED RED BLOOD CELLS [1]: 0.17 /100WBC | PLATELET COUNT [1]: 1114.5 x10E3/uL | ALANINE AMINOTRANSFERASE [1]: 46.17 u/L | ALBUMIN [1]: 4.15 G/DL | ALKALINE PHOSPHATASE [1]: 374.67 u/L | ASPARTATE AMINOTRANSFERASE [1]: 89.33 u/L | BLOOD UREA NITROGEN [1]: 14.83 mg/dL | CARBON DIOXIDE [1]: 25.67 mmol/L | CHLORIDE [1]: 101.17 MEQ/L | CHOLESTEROL [1]: 63.5 mg/dL | CREATINE PHOSPHOKINASE [1]: 494.67 u/L | CREATININE [1]: 0.17 mg/dL | GLUCOSE [1]: 163 mg/dL | LACTATE DEHYDROGENASE [1]: 269.33 u/L | LIPASE [1]: 10.67 u/L | PHOSPHORUS [1]: 11.27 mg/dL | POTASSIUM [1]: 5.85 MEQ/L | SODIUM [1]: 141.68 MEQ/L | TOTAL BILIRUBIN [1]: 0.18 mg/dL | TOTAL PROTEIN [1]: 5.87 G/DL | URIC ACID [1]: 1.28 mg/dL | ABSOLUTE BASOPHIL [2]: 0 CELLS/uL | ABSOLUTE EOSINOPHIL [2]: 24.67 CELLS/uL | ABSOLUTE LYMPHOCYTE [2]: 11832.83 CELLS/uL | ABSOLUTE MONOCYTE [2]: 279.67 CELLS/uL | ABSOLUTE SEGMENTED NEUTROPHIL [2]: 1446.17 CELLS/uL | BASOPHIL [2]: 0% | EOSINOPHIL [2]: 0.17% | ERYTHROCYTE COUNT [2]: 5.61 x10E6/uL | HEMATOCRIT [2]: 35.02% | HEMOGLOBIN [2]: 13.82 G/DL | LEUKOCYTE COUNT [2]: 13.58 x10E3/uL | LYMPHOCYTE [2]: 87.67% | MEAN CORPUSCULAR HEMOGLOBIN [2]: 24.68 pg | MEAN CORPUSCULAR HEMOGLOBIN CONCENTRATION [2]: 39.5 G/DL | MEAN CORPUSCULAR VOLUME [2]: 62.42 fL | MONOCYTE [2]: 2% | NEUTROPHIL [2]: 10.17% | NUCLEATED RED BLOOD CELLS [2]: 0 /100WBC | PLATELET COUNT [2]: 1178.17 x10E3/uL | ALANINE AMINOTRANSFERASE [2]: 52.83 u/L | ALBUMIN [2]: 4.12 G/DL | ALKALINE PHOSPHATASE [2]: 370 u/L | ASPARTATE AMINOTRANSFERASE [2]: 100.5 u/L | BLOOD UREA NITROGEN [2]: 15.17 mg/dL | CARBON DIOXIDE [2]: 28.83 mmol/L | CHLORIDE [2]: 101 MEQ/L | CHOLESTEROL [2]: 69.5 mg/dL | CREATINE PHOSPHOKINASE [2]: 488.67 u/L | CREATININE [2]: 0.23 mg/dL | GLUCOSE [2]: 165 mg/dL | LACTATE DEHYDROGENASE [2]: 502.17 u/L | LIPASE [2]: 11 u/L | PHOSPHORUS [2]: 11.7 mg/dL | POTASSIUM [2]: 5.85 MEQ/L | SODIUM [2]: 142.45 MEQ/L | TOTAL BILIRUBIN [2]: 0.18 mg/dL | TOTAL PROTEIN [2]: 5.85 G/DL | URIC ACID [2]: 1.43 mg/dL | ABSOLUTE BASOPHIL [3]: 0 CELLS/uL | ABSOLUTE EOSINOPHIL [3]: 0 CELLS/uL | ABSOLUTE LYMPHOCYTE [3]: 7777.33 CELLS/uL | ABSOLUTE MONOCYTE [3]: 151.33 CELLS/uL | ABSOLUTE SEGMENTED NEUTROPHIL [3]: 1138 CELLS/uL | BASOPHIL [3]: 0% | EOSINOPHIL [3]: 0% | ERYTHROCYTE COUNT [3]: 5.68 x10E6/uL | HEMATOCRIT [3]: 35.57% | HEMOGLOBIN [3]: 13.43 G/DL | LEUKOCYTE COUNT [3]: 9.07 x10E3/uL | LYMPHOCYTE [3]: 85.67% | MEAN CORPUSCULAR HEMOGLOBIN [3]: 23.67 pg | MEAN CORPUSCULAR HEMOGLOBIN CONCENTRATION [3]: 37.77 G/DL | MEAN CORPUSCULAR VOLUME [3]: 62.63 fL | MONOCYTE [3]: 1.67% | NEUTROPHIL [3]: 12.67% | NUCLEATED RED BLOOD CELLS [3]: 0 /100WBC | PLATELET COUNT [3]: 1053 x10E3/uL | ALANINE AMINOTRANSFERASE [3]: 49.33 u/L | ALBUMIN [3]: 4.33 G/DL | ALKALINE PHOSPHATASE [3]: 363.33 u/L | ASPARTATE AMINOTRANSFERASE [3]: 85.33 u/L | BLOOD UREA NITROGEN [3]: 14 mg/dL | CARBON DIOXIDE [3]: 26 mmol/L | CHLORIDE [3]: 101.67 MEQ/L | CHOLESTEROL [3]: 85.33 mg/dL | CREATINE PHOSPHOKINASE [3]: 333 u/L | CREATININE [3]: 0.25 mg/dL | GLUCOSE [3]: 155.67 mg/dL | LACTATE DEHYDROGENASE [3]: 134 u/L | LIPASE [3]: 11 u/L | PHOSPHORUS [3]: 10.57 mg/dL | POTASSIUM [3]: 6.37 MEQ/L | SODIUM [3]: 143.37 MEQ/L | TOTAL BILIRUBIN [3]: 0.3 mg/dL | TOTAL PROTEIN [3]: 6.17 G/DL | URIC ACID [3]: 1.6 mg/dL
